From patent US11219598B2, “Ophthalmic drug sustained release device” (PUBLIC UNIVERSITY CORPORATION NAGOYA CITY UNIVERSITY, priority 2016, dated 2022)

Assay: Drug release test of solid fluorescein sodium-enclosed PMMA hollow device filled with SF6 gas after transplantation into rabbit
Assay type: in vivo
Conditions: fluorescence intensity meter, after initial burst, from the first week
Description: In order to prepare a hollow device made of a polymethyl methacrylate (PMMA) resin as an acrylic resin having low oxygen permeability, outer edge portions of optical parts of two PMMA intraocular lenses were bonded with an adhesive, as a trial model. The cavity volume was calculated to be 11.3 μL. One opening part was made without using an adhesive (arrow) (FIG. 3(A), and FIG. 4). In order to examine the drug release property, a 10% aqueous solution of sodium fluorescein as a low-molecular-weight water-soluble fluorescent dye was filled in the cavity of the PMMA hollow device and air-dried (FIG. 3(B)). The solid fluorescein sodium-enclosed PMMA hollow device was placed in 100% SF6 gas, and its hollow portion was filled with the gas (FIG. 3(B)). After a rabbit was anesthetized by intramuscular injection of Ketalar and Selactar, the pupil of the right eye was dilated with a […] hydrochloride ophthalmic solution (Mydrin-P (registered trademark), Santen Pharmaceutical Co., Ltd.). […] The residual amount of gas was measured from the photograph of the anterior ocular segment and the content of fluorescein sodium in the anterior chamber water sample was measured with a fluorescence intensity meter. […]

O=C1OC2(c3ccc(O)cc3Oc3cc(O)ccc32)c2ccccc21 [fluorescein sodium, sodium fluorescein]
drug release profile (fluorescein sodium content in anterior chamber water): stable sustained release
